Among the test systems are MDA-MB-435; MDA-N; PC-3; T47D; DMS-114; SNB-78; DMS-273; HOP-18.
Assay in all cases: NCI tumour cell line growth inhibition, 48 h

Each structure is given as a SMILES string.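 How tested: cells in 96-well plates exposed to compound for 48 hours at five concentrations. GI50 marks 50% less growth.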 The source made the active and inactive calls. Rule as the data show it: active = GI50 up to about 1.1 µM and inactive = higher. Some results are limits rather than exact numbers.

Consider `Nc1nc(Cl)nc2c1ncn2C1CCC(CO)O1` (stereo not given), for which the GI50 in the assay with MDA-MB-435, in the assay with MDA-N, in the assay with PC-3 and in the assay on T47D was > 100 µM (inactive) each time.
In the case of `Nc1ccc2c(c1)C(=O)N(O)C2=O`, the GI50 with DMS-114 and with SNB-78 was > 100 µM (inactive) in each case.
Take `Cc1ccc2c(c1)C(=O)N(N(C)C)CC(=O)N2`: the GI50 in the assay with DMS-114, in the assay on DMS-273, in the assay on HOP-18 and in the assay with SNB-78 was > 100 µM (inactive) in each case.
With `CN(C)CCCNC(=O)N/N=C/c1ccccn1`, the GI50 in the assay with MDA-N, in the assay with PC-3 and with T47D was > 10 µM (inactive) each time.
As for `CC(C)C[C@@H](NC(=O)[C@@H](Cc1cccc2ccccc12)NC(=O)N1CCOCC1)B(O)O`, the GI50 in the assay with MDA-MB-435 was 20.8 µM (inactive); with MDA-N, 20.7 µM (inactive); in the assay on PC-3 it was > 100 µM (inactive); in the assay with T47D, 58.2 µM (inactive).
On to `COC(=O)C1=CSC2(S1)C(C(=O)OC)=CSc1c2ssc1=O` (stereo not given), for which the GI50 in the assay on MDA-MB-435 was 1.72 µM (inactive); in the assay with MDA-N, 2.13 µM (inactive); in the assay on PC-3 it was 2.22 µM (inactive); with T47D, 2.14 µM (inactive).
Take `CN(C)/C(=N\C#N)NCc1ccccc1`: the GI50 in the assay on DMS-273 and in the assay on SNB-78 was > 100 µM (inactive) each time.
With `O=c1ccc2nc3cc(Br)ccc3sc-2c1`, the GI50 in the assay with DMS-114, with DMS-273 and in the assay with SNB-78 was > 100 µM (inactive) in each case.
For `CCCCC(=O)c1c(O)nc2sccn2c1=O`, the GI50 in the assay with MDA-MB-435, in the assay with MDA-N, in the assay on PC-3 and in the assay on T47D was > 10 µM (inactive) each time.
Turning to `CNC(=O)CNC(=O)CCC(=O)N(C)C`, the GI50 in the assay on MDA-MB-435, in the assay on MDA-N, in the assay on PC-3 and in the assay with T47D was > 100 µM (inactive) in each case.
For the compound `[O-][n+]1c2c([n+]([O-])c3ccccc31)-c1cccc3cccc-2c13`, the GI50 in the assay on MDA-MB-435, with MDA-N, in the assay with PC-3 and in the assay on T47D was > 100 µM (inactive) throughout.
On to `O=C1C(=Cc2cccc(O)c2)N=C(c2ccccc2)N1n1c(-c2ccccc2)nc2ccccc2c1=O`, for which the GI50 in the assay with MDA-MB-435 is 35.6 µM (inactive); in the assay on PC-3, 23.8 µM (inactive); with T47D it was 34.9 µM (inactive).
In the case of `COc1cc2c(cc1OC)CCN=C2`, the GI50 in the assay with MDA-MB-435, in the assay with MDA-N, in the assay on PC-3 and with T47D was > 100 µM (inactive) in each case.
Regarding `COC1CCC(O)C(CO)O1` (stereo not given), the GI50 with SNB-78 is > 100 µM (inactive).
Regarding `CN(C)C(=O)OCOC(=O)N(C)C`, the GI50 in the assay with DMS-114, in the assay on DMS-273, with HOP-18 and in the assay on SNB-78 was > 100 µM (inactive) in each case.
`CSc1nc(Cl)c2c(n1)Sc1ncnn1C2O` (stereo not given): the GI50 in the assay with MDA-MB-435 is 4.57 µM (inactive); in the assay with MDA-N, 7.13 µM (inactive); in the assay with PC-3, 13.6 µM (inactive).
For the compound `CC1(C)OC2CC(=O)OCC23C1CC(=O)C1(C)C3CCC2(C)C(c3ccoc3)OC(=O)C3OC321` (stereo not given), the GI50 in the assay on DMS-114, in the assay with DMS-273, in the assay on HOP-18 and in the assay on SNB-78 was > 125 µM (inactive) each time.
In the case of `CCCCn1/c(=N/C(=S)N(C)C)ss/c1=N\C(=S)N(C)C`, the GI50 with DMS-273, in the assay with HOP-18 and with SNB-78 was > 100 µM (inactive) each time.
Take `O=C(CCC1C(=O)NC(=S)NC1=O)c1ccc2ccccc2c1`: the GI50 in the assay with DMS-114, with DMS-273, in the assay on HOP-18 and with SNB-78 was > 100 µM (inactive) throughout.
As to `COc1cc(C2c3cc4c(cc3[C@@H](Nc3ccc5c(c3)OCO5)C3COC(=O)[C@H]23)OCO4)cc(OC)c1O` (stereo not given in full), the GI50 is 0.105 µM (active) in the assay on DMS-273 and 0.766 µM (active) in the assay with HOP-18.
As for `C[n+]1c(-c2ccc(/C=N/Nc3n[nH]c(=S)n3N/N=C/c3ccc(-c4cn5ccccc5[n+]4C)cc3)cc2)cn2ccccc21`, the GI50 in the assay with MDA-MB-435, with MDA-N, in the assay with PC-3 and in the assay with T47D was > 100 µM (inactive) throughout.
